Source: paper PMC8395040 (International Journal of Molecular Sciences, 2021)

Tests used:
tumour cell lines = experiment: MTT cytotoxicity assay, summary over the tumour cell line panel; assay type: cell-based, human
Protocol: Cytotoxicity assays were performed by using the MTT reduction method as described previously. Briefly, cancer cell lines were plated in flat-bottom 96-well plates at a cell concentration of 5 × 10^3 cells/well for the fastest growing lines, such as HEK293 and HT29 cells and 1 × 10^4 cells/well for more slowly growing lines, such as HCT116, H1975, BxPC-3, AsPC-1, B16-F10 and DAOY. Then, cells were incubated with the synthesised compounds at different concentrations (from 0.05 to 50 µM) in 200 µL with 10% FBS in RPMI 1640 or DMEM F12 culture medium at 37 °C for 72 h. Later, 10 µL of MTT were added at a final concentration of 0.5 mg/mL, incubated at 37 °C for 4 h, and then solubilised with 10% sodium dodecyl sulphate (SDS) in 0.1 mM HCl and incubated overnight at 37 °C. Formazan formation was measured at 570 nm in a multiwell plate reader (Cytation 5, Biotek Instruments, Winooski, VT, USA). Three independent biological replicates were performed.

[1] = system: Gli1 mRNA in WT MEFs stimulated with SAG; experiment: Gli1 mRNA (qRT-PCR) in SAG-stimulated WT MEFs; assay type: cell-based, mouse; settings: 10 µM, SAG 200 nM, 24 h
B16F10 cells = experiment: MTS viability assay, B16F10; assay type: cell-based, murine; settings: Mus musculus, B16-F10, 24 h
Protocol: In the case of experiments using nanoemulsions, cell proliferation was evaluated after treatments. To do this the complete medium containing treatments was removed and replaced with fresh culture medium supplemented with 10% tetrazolium compound of the MTS® assay (CellTiter 96® Aqueous Non-Radioactive Cell Proliferation Assay), according to the manufacturer’s instructions (Promega, Madison, WI, USA). The soluble formazan produced by live cells was detected as absorbance at 490 nm on a Multiscan Reader (Synergy-H4, Biotek). Background values contributed by excess of cell debris and bubbles were measured at 650 nm and were subtracted.
Figure 7 Effect of 4s-NEM on the viability of cancer (B16F10) and non-cancer (HEK293) cells in vitro. Cells were treated with 4s-NEM at different concentrations for 24 h and their viability was evaluated using the MTS assay; SDS, the vehicle for NEM, and 4s free in the culture medium were used as controls. The IC50 was determined in each case. (A) Effect of 4s-NEM on B16F10 cells. Six independent experiments were performed in triplicate. Results are shown as the mean ± SEM. (B) Effect of 4s-NEM on HEK293 cells. Results are shown as the mean ± SEM of three separate experiments. (***) p < 0.001, (*) p < 0.05 vs. control, ns = non-significant. Data analysis was performed via a 2-way ANOVA Tukey’s multiple comparisons test.

[2] = system: Gli1 mRNA in Ptch1−/− mouse embryonic fibroblasts; experiment: Gli1 mRNA (qRT-PCR) in Ptch1−/− MEFs; assay type: cell-based; settings: increasing concentrations, 24 h
Protocol: HEK293T and Smo^−/−, Ptch^−/− MEFs cells were cultured in DMEM plus 10% FBS, 1% L-glutamine and antibiotics. Transient transfections were performed using DreamFectTM Gold transfection reagent (Oz Biosciences SAS, Marseille, France) following the manufacturer’s instructions and for varying periods of time depending on the experiment (24–72 h). […] Vehicle (DMSO) was used as control.
Total RNA was isolated with Trizol (Invitrogen/Life Technologies, Carlsbad, CA, USA) from Smo^−/− MEFs, Ptch^−/− MEFs or HT29 cells treated for 24 h and/or 48 h with 4s at different concentrations and reverse transcribed with the SensiFAST cDNA Synthesis Kit (Bioline Reagents Limited, London, UK). Quantitative real-time PCR (Q-PCR) analysis of Gli1 and housekeeping (HPRT, TBP, HMBS) mRNA levels was performed on each cDNA sample using the VIIA7 Real Time PCR System employing Assay-on-Demand Reagents (Life Technologies) as previously described. […] Each amplification reaction was performed in triplicate, the average of the three threshold cycles was used to calculate the amount of transcript in the sample (using SDS version 2.3 Software). mRNA quantification was expressed in arbitrary units as the ratio of the sample quantity to the quantity of the calibrator (ΔCt method). […]

- IC50 (B16F10 cells): 27.5 µM
- melting point: 153 to 155 °C
Compound: CCCCCCn1cnc2c(-c3ccc(OC(F)(F)F)cc3)nc(N3CCN(c4ccncc4)CC3)nc21 [Compound 4s, 9-Hexyl-2-(4-(pyridin-4-yl)piperazin-1-yl)-6-(4-(trifluoromethoxy)phenyl)-9H-purine]
- selectivity for cancer cells compared to HEK293 control cells (tumour cell lines): 40 times
- cytotoxicity in tumour cell lines (tumour cell lines; 50 µM, 72 h, MTT, tumour cell lines tested): more than 80%
- IC50 (tumour cell lines; Homo sapiens, depending on the tumour cell line, 72 h, read-out: IC50 range over tumour cell lines): 1.3 to 15 µM
- fold increase in cytotoxicity compared to vismodegib (tumour cell lines; from IC50 values): ~40 fold
- Gli-1 expression in WT MEF cells stimulated with SAG [1]: inhibited Gli-1 expression
- GLI1 mRNA levels in Ptch1−/− MEFs [2]: significantly reduced mRNA levels of GLI1
